Data taken from patent US7572463B2, “Oral dosage forms” (Gruenenthal GmbH, priority 1999, dated 2009).
Counter-ions that a name gives are not always drawn.

Assays:
[1] = Water solubility of the active-substance salts (saturated solution in deionised water, HPLC); type: physicochemical; settings: 25° C., 20 hours stirring
Protocol: The water solubility of the active-substance salts was determined as follows:
The quantity of the relevant active-substance salts required for this may optionally be determined by means of preliminary experiments.
After the un-dissolved active-substance salt had been allowed to settle, the clear supernatant was removed by pipette and centrifuged at rate of at least 3000 rpm for five minutes.

[2] = In-vitro release profile, European Pharmacopoeia basket apparatus, synthetic gastric then intestinal juices, HPLC; type: physicochemical
Protocol: The release profiles of the oral dosage forms according to the invention were determined as follows:
The dosage forms according to the invention were tested in the European Pharmacopoeia basket apparatus at a temperature of the released medium of 37±0.5° C., and at a rate of 50 rpm for 2 hours in 600 ml synthetic gastric juices without enzymes at pH 1.2. Following this, the dosage form was tested for a further 8 hours in 900 ml synthetic intestinal juices without enzymes at pH 7.2. The quantity of active substance released at a given time was determined in each case by means of HPLC. The values shown are average values based in each case on 3 samples. The invention will be explained below with reference to examples.
The release profile was determined according to the method indicated above using the basket apparatus and this is reproduced in the following Table 1 and in FIG. 1 (as a percentage of the total dose, calculated as tramadol hydrochloride). By way of deviation from the conditions described above, the coated pellets were tested for 18 hours in synthetic intestinal juices without enzymes at pH 7.2.
The release profile was determined according to the method indicated above using the basket apparatus and this is reproduced in the following Table 2 and in FIG. 2 (as a percentage of the total dose, calculated as tramadol hydrochloride). By way of deviation from the conditions described above, the coated pellets were tested for 10 hours in synthetic intestinal juices without enzymes at pH 7.2.

[3] = salt in the ethyl cellulose coated pellets of Example 2
[4] = salt in the shellac coated pellets of Example 3, tests in synthetic intestinal juices

SMILES: COc1cccc(C2(O)CCCCC2CN(C)C)c1 (stereo not drawn) [tramadol hydrochloride]
- solubility at 20 h ([1]; thermodynamic from solid): > 300 mg/mL
- release of the active substance tramadol from the salt (in words) [2, 3]: released very rapidly
- release of the active substance tramadol from the salt (in words) [2, 4]: released very rapidly

SMILES: COc1cccc(C2(O)CCCCC2CN(C)C)c1.O=C(O)Cc1ccccc1Nc1c(Cl)cccc1Cl (stereo not drawn) [[1e-(m-methoxyphenyl)-2e-dimethylaminomethyl-cyclohexane-1(a)-ol]-[2-(2′,6′-dichloranilino)-phenylacetate]]
- period over which tramadol is released in a retarded manner from the salt [2, 3]: 10 h
- period over which tramadol is released in a retarded manner from the salt [2, 4]: 8 h

SMILES: COc1cccc(C2(O)CCCCC2CN(C)C)c1.O=C1NS(=O)(=O)c2ccccc21 (stereo not drawn) [tramadolsaccharinate]
- water solubility [1]: approx. 20 mg/ml
